# From publication PMC7614683, “A small molecule PI3Kα activator for cardioprotection and neuroregeneration” (Nature, 2023)
# Where two headings read alike, the source gives them in different places.
# Key:
# Assay in all cases: SelectScreen Z-LYTE kinase activity assay (SI Table 6)
# Type in all cases: biochemical
# [1] = target: protein kinases of the Z-LYTE panel (Homo sapiens, UniProt P10721)
# In short: (§1)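 Single-point profiling, 1 μM 1938; LanthaScreen binding, Adapta or Z-LYTE read-outs; 133 protein + 7 lipid kinases.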
# [2] = target: protein kinases of the Z-LYTE panel (Homo sapiens, UniProt P08922)
# Chain of protein kinases of the Z-LYTE panel (Homo sapiens, UniProt P08922) (P08922 28-2347): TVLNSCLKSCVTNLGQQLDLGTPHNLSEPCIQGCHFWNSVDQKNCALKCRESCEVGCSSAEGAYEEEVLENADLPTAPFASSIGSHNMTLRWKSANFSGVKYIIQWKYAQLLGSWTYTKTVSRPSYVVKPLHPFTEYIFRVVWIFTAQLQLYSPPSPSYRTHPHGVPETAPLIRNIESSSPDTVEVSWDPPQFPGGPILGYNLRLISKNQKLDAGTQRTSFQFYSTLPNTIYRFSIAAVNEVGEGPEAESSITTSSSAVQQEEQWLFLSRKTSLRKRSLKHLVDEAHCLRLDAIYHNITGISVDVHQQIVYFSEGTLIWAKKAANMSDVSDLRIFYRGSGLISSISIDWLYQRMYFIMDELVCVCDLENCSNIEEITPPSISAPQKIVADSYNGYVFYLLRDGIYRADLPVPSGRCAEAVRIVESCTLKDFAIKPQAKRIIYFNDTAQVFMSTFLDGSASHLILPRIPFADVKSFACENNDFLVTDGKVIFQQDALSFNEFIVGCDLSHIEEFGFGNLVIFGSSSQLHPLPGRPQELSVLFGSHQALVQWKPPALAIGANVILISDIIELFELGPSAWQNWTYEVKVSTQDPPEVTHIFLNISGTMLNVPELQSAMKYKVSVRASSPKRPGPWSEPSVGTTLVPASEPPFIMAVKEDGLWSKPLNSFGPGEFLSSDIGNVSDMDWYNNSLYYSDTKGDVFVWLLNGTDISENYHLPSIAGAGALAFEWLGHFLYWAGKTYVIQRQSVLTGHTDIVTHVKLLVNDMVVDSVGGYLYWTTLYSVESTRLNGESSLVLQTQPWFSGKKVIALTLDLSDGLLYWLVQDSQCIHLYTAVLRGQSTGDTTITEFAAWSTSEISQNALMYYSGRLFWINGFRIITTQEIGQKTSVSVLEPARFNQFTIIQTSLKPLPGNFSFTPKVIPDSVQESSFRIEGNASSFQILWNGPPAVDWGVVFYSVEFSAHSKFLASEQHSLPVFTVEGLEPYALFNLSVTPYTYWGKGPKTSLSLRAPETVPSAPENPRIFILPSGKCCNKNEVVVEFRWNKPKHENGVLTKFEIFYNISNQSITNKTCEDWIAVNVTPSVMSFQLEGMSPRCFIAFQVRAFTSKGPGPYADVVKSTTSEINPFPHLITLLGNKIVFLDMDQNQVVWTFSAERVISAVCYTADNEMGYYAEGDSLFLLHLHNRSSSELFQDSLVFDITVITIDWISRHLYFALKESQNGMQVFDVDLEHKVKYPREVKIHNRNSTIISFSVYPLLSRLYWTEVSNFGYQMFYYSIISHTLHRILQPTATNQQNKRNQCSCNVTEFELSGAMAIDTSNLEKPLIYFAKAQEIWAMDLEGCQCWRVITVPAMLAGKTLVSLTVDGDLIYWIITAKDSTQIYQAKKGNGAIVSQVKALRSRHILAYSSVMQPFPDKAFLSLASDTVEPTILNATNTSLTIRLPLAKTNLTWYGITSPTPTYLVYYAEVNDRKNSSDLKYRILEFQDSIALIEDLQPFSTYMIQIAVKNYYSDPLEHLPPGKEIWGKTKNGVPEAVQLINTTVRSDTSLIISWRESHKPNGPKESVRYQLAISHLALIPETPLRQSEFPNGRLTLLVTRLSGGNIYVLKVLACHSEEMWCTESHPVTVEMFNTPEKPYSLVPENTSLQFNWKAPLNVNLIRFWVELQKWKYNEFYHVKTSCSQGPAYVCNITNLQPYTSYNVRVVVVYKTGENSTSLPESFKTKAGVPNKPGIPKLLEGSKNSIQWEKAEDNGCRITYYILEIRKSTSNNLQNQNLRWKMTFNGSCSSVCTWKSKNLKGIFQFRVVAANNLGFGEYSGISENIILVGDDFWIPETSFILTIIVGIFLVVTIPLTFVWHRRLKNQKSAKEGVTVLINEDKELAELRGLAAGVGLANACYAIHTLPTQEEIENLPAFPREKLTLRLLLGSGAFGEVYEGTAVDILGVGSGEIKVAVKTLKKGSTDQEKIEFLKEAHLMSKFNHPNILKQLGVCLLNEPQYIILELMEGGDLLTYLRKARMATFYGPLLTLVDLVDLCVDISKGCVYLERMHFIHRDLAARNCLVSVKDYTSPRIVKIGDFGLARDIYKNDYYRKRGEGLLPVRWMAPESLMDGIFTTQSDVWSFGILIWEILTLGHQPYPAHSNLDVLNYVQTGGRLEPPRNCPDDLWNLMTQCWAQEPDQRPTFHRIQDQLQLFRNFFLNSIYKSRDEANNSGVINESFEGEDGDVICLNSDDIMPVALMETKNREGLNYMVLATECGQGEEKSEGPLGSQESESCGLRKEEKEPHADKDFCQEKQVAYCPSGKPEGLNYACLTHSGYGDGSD
# In short: as §1
# [3] = target: T1, protein kinases of the Z-LYTE panel (Homo sapiens, UniProt P54762)
# T1 sequence (P54762 18-984): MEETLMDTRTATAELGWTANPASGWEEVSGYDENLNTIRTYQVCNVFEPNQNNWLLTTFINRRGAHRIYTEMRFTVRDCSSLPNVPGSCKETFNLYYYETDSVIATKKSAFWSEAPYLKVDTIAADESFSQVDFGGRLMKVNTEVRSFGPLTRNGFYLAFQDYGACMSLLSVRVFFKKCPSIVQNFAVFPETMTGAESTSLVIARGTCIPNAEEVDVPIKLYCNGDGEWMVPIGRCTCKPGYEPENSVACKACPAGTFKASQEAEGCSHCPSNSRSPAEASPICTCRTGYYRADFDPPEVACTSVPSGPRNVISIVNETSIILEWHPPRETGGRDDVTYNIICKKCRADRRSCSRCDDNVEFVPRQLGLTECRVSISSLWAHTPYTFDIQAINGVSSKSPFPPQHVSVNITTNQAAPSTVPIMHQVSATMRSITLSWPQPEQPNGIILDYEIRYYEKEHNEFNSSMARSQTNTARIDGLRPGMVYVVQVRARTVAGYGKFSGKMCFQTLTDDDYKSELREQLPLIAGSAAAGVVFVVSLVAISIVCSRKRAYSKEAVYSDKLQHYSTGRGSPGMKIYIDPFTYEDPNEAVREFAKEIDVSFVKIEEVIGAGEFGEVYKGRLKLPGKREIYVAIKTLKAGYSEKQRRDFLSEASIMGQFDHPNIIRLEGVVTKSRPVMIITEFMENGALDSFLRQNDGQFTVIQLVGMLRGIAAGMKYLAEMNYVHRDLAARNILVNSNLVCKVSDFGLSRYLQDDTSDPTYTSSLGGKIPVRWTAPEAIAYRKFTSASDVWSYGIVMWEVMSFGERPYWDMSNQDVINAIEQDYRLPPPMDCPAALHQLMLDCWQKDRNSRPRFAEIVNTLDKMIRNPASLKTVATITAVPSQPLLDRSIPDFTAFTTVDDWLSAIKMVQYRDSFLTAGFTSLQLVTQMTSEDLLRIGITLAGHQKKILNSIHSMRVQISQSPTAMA
# In short: as §1
# [4] = target: T2, protein kinases of the Z-LYTE panel (Homo sapiens, UniProt P30530)
# T2 sequence (P30530 26-894): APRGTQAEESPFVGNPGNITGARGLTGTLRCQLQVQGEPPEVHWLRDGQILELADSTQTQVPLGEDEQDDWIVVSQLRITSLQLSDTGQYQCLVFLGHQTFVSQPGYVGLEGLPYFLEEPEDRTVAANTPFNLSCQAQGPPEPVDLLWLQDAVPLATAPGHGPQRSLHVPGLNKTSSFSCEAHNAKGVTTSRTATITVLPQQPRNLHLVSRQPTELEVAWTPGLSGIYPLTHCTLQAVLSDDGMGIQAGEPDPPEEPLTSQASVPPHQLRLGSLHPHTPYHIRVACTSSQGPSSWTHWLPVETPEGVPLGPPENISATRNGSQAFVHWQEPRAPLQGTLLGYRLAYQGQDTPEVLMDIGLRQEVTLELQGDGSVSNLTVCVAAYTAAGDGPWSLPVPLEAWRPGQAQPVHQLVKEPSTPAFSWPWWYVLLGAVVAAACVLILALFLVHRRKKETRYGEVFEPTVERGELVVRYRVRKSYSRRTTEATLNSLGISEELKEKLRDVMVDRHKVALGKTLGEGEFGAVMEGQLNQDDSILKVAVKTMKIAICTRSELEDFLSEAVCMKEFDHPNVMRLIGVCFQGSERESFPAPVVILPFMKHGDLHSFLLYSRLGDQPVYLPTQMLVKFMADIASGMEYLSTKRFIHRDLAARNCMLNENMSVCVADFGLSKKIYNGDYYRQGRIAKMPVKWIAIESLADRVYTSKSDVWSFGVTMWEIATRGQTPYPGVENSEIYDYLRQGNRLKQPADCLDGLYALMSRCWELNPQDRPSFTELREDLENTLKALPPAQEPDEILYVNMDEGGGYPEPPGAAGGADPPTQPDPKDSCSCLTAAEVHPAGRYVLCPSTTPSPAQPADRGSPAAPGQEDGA
# In short: as §1
# Chain of protein kinases of the Z-LYTE panel (Homo sapiens, UniProt P10721) (P10721 26-976): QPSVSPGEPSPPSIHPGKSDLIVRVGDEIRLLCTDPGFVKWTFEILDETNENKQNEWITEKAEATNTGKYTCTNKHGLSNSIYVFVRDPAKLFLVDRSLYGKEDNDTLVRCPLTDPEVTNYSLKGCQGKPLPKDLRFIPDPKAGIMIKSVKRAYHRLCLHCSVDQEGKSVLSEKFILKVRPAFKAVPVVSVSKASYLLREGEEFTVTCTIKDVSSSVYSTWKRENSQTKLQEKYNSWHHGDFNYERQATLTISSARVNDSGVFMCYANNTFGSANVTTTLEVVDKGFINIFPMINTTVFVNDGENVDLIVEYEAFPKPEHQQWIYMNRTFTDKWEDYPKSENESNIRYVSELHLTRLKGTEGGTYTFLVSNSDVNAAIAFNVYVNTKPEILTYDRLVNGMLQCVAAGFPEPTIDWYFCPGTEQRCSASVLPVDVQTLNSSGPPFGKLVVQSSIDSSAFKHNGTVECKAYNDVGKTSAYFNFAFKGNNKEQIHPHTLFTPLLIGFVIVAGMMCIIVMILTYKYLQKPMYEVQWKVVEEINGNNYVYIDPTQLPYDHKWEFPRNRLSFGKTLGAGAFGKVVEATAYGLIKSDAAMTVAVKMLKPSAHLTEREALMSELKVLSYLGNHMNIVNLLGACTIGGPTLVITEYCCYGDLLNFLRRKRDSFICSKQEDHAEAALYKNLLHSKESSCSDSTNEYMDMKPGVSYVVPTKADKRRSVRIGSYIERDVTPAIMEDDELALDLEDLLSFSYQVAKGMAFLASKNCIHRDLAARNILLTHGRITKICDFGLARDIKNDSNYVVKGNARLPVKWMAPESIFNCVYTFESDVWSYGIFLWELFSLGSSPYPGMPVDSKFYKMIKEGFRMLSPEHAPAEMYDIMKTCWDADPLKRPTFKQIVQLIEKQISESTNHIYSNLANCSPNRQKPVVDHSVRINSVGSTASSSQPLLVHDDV
smiles,measurement,setting,value
CCN1CCN(c2ccc(Nc3cc(Nc4cccc5c4N(C(C)=O)CC5)ccn3)cc2)CC1 [Compound 1938],inhibition at 1 µM,[1]; read-out: % Inhibition Point 1,6.43%
same,inhibition at 1 µM,[1]; read-out: % Inhibition Point 2,8%
same,inhibition at 1 µM,[1]; read-out: % Inhibition mean,7%
same,inhibition at 1 µM,[2]; read-out: % Inhibition Point 1,19%
same,inhibition at 1 µM,[2]; read-out: % Inhibition Point 2,22%
same,inhibition at 1 µM,[2]; read-out: % Inhibition mean,21%
same,inhibition at 1 µM,[3]; read-out: % Inhibition Point 1,11%
same,inhibition at 1 µM,[3]; read-out: % Inhibition Point 2,11%
same,inhibition at 1 µM,[3]; read-out: % Inhibition mean,11%
same,inhibition at 1 µM,[4]; read-out: % Inhibition Point 1,7%
same,inhibition at 1 µM,[4]; read-out: % Inhibition Point 2,8%
same,inhibition at 1 µM,[4]; read-out: % Inhibition mean,7.4%
